Calls of active or inactive are those of the source. The calls are words filed in the database; no cut-off is given here.
How the values were obtained:
Leishmania amazonensis [1] = experiment: Antileishmanial activity against Leishmania amazonensis after 72 hrs; assay type: functional, organism-based
[2] = system: Peritoneal macrophage cell; experiment: Induction of intracellular […] production in Swiss mouse peritoneal macrophages up to 12 uM after 72 hrs by spectrofluorometric analysis; assay type: functional, cell-based
[3] = system: Peritoneal macrophage cell; experiment: Induction of intracellular […] production in promastigotes of Leishmania amazonensis MHOM/BR/75/LTB0016 infected Swiss mouse peritoneal macrophages at 12 uM after 72 hrs by spectrofluorometric analysis relative to control; assay type: functional
[4] = system: Peritoneal macrophage cell; experiment: Induction of intracellular […] production in promastigotes of Leishmania amazonensis MHOM/BR/75/LTB0016 infected Swiss mouse peritoneal macrophages after 72 hrs by spectrofluorometric analysis; assay type: functional, cell-based
[5] = Cytotoxicity against Swiss mouse peritoneal macrophages after 72 hrs by AlamarBlue assay; assay type: cell-based; settings: Peritoneal macrophage cell
[6] = Selectivity index, ratio of IC50 for Swiss mouse peritoneal macrophages to IC50 for promastigotes of Leishmania amazonensis MHOM/BR/75/LTB0016
Leishmania amazonensis [7] = experiment: Antileishmanial activity against promastigotes of Leishmania amazonensis MHOM/BR/75/LTB0016 infected in Swiss mouse peritoneal macrophages assessed as parasite growth inhibition at 12 uM after 72 hrs; assay type: functional; settings: MHOM/BR/75/LTB0016, 72 h, read-out: GI
Leishmania amazonensis [8] = experiment: Antileishmanial activity against promastigotes of Leishmania amazonensis MHOM/BR/75/LTB0016 infected in Swiss mouse peritoneal macrophages assessed as reduction of infection index after 72 hrs; assay type: functional, organism-based

SMILES | IC50 (Leishmania amazonensis [1]) | Activity [2] | fold change (FC) [3] | Activity [4] | IC50 [5] | Ratio IC50 [6] | inhibition of growth at 12 µM (Leishmania amazonensis [7]) | inhibition (Leishmania amazonensis [8]) | IC50 (Leishmania amazonensis [8]; MHOM/BR/75/LTB0016, 72 h)
CCCCCCCCCCCCCCCCOP(=O)([O-])OCC[N+](C)(C)C [MILTEFOSINE] | 3.2 µM |  |  |  |  |  |  |  | 
O=c1c(O)c(-c2ccc(O)c(O)c2)oc2cc(O)cc(O)c12 [QUERCETIN] |  | inactive | 1.5 | Dose-dependent effect | 80.2 µM | 16.8 | 74.8% | Dose-dependent effect | 3.4 µM
